Data from the supplement of paper PMC11451515.

System: P12-Ichikawa
Experiment: cell viability relative to DMSO control; higher = less cytotoxic
Settings: 48 h
Procedure, shortened: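 Viability, reported as a per-plate percentage of DMSO wells with cell-free wells as background, came from CellTiter-Glo One luminescence. Reading took place after 48 h at 37°C. Before that, NOMO1 or SEM (500 cells/well) or P12-Ichikawa (1000 cells/well) leukemia cells, adapted for at least four passages in each medium, were seeded in 1536-well plates (5 μl) and pin-dosed with library compounds in DMSO, 47 μM to 0.79 nM over 11 threefold points.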

[1] = RPMI 5 mM glucose + 10% FBS, 0.000781 µM
[2] = RPMI 5 mM glucose + 10% FBS, 0.00234 µM
[3] = RPMI 5 mM glucose + 10% FBS, 0.00702 µM
[4] = RPMI 5 mM glucose + 10% FBS, 0.0211 µM
[5] = RPMI 5 mM glucose + 10% FBS, 0.0632 µM
[6] = RPMI 5 mM glucose + 10% FBS, 0.19 µM
[7] = RPMI 5 mM glucose + 10% FBS, 0.569 µM
[8] = RPMI 5 mM glucose + 10% FBS, 1.71 µM
[9] = RPMI 5 mM glucose + 10% FBS, 5.12 µM
[10] = RPMI 5 mM glucose + 10% FBS, 15.4 µM
[11] = RPMI 5 mM glucose + 10% FBS, 46.1 µM
[12] = HPLM + 10% dialyzed FBS, 0.000781 µM
[13] = HPLM + 10% dialyzed FBS, 0.00234 µM
[14] = HPLM + 10% dialyzed FBS, 0.00702 µM
[15] = HPLM + 10% dialyzed FBS, 0.0211 µM
[16] = HPLM + 10% dialyzed FBS, 0.0632 µM
[17] = HPLM + 10% dialyzed FBS, 0.19 µM
[18] = HPLM + 10% dialyzed FBS, 0.569 µM
[19] = HPLM + 10% dialyzed FBS, 1.71 µM
[20] = HPLM + 10% dialyzed FBS, 5.12 µM
[21] = HPLM + 10% dialyzed FBS, 15.4 µM
[22] = HPLM + 10% dialyzed FBS, 46.1 µM
[23] = RPMI 5 mM glucose + 10% dialyzed FBS, 0.000781 µM
[24] = RPMI 5 mM glucose + 10% dialyzed FBS, 0.00234 µM
[25] = RPMI 5 mM glucose + 10% dialyzed FBS, 0.00702 µM
[26] = RPMI 5 mM glucose + 10% dialyzed FBS, 0.0211 µM
[27] = RPMI 5 mM glucose + 10% dialyzed FBS, 0.0632 µM
[28] = RPMI 5 mM glucose + 10% dialyzed FBS, 0.19 µM
[29] = RPMI 5 mM glucose + 10% dialyzed FBS, 0.569 µM
[30] = RPMI 5 mM glucose + 10% dialyzed FBS, 1.71 µM
[31] = RPMI 5 mM glucose + 10% dialyzed FBS, 5.12 µM
[32] = RPMI 5 mM glucose + 10% dialyzed FBS, 15.4 µM
[33] = RPMI 5 mM glucose + 10% dialyzed FBS, 46.1 µM

| Compound | cell viability [1] | cell viability [2] | cell viability [3] | cell viability [4] | cell viability [5] | cell viability [6] | cell viability [7] | cell viability [8] | cell viability [9] | cell viability [10] | cell viability [11] | cell viability [12] | cell viability [13] | cell viability [14] | cell viability [15] | cell viability [16] | cell viability [17] | cell viability [18] | cell viability [19] | cell viability [20] | cell viability [21] | cell viability [22] | cell viability [23] | cell viability [24] | cell viability [25] | cell viability [26] | cell viability [27] | cell viability [28] | cell viability [29] | cell viability [30] | cell viability [31] | cell viability [32] | cell viability [33] |
| --- | --- | --- | --- | --- | --- | --- | --- | --- | --- | --- | --- | --- | --- | --- | --- | --- | --- | --- | --- | --- | --- | --- | --- | --- | --- | --- | --- | --- | --- | --- | --- | --- | --- |
| O=C(CCCCCCC(=O)Nc1ccc([C@H]2O[C@@H](CSc3nc(-c4ccccc4)c(-c4ccccc4)o3)C[C@@H](c3ccc(CO)cc3)O2)cc1)NO | 118% | 122% | 134% | 123% | 136% | 116% | 115% | 114% | 49.9% | 4.95% | 3.26% | – | – | – | – | – | – | – | – | – | – | – | – | – | – | – | – | – | – | – | – | – | – |
| Cc1nn(C)c(COc2ccc(N3CCN([S+](=O)([O-])N(C)C)CC3)cc2)c1-c1cccc2c(CCCOc3cccc4ccccc34)c(C(=O)O)n(CCN3CCOCC3)c12 | 89.3% | 107% | 101% | 97.7% | 105% | 107% | 109% | 113% | 104% | 109% | 46.6% | 92.3% | 99.2% | 97.4% | 102% | 103% | 106% | 107% | 110% | 29.9% | 29.2% | 28% | 87.5% | 107% | 104% | 106% | 112% | 115% | 120% | 114% | 96.1% | 97.6% | 36.7% |
| C[N]1C=C(C2=CC=CC=C12)\C3=C(\C(=O)NC3=O)C4=C[N](C5CCN(CC5)CC6=NC=CC=C6)C7=C4C=CC=C7 | 118% | 126% | 119% | 115% | 118% | 123% | 127% | 124% | 116% | 116% | 125% | 110% | 116% | 115% | 119% | 118% | 123% | 120% | 118% | 118% | 120% | 117% | – | – | – | – | – | – | – | – | – | – | – |
| C[C@H](CCC(=O)O)[C@H]1CCC2C3C[C@H](O)[C@@H]4C[C@H](O)CC[C@]4(C)C3CC[C@@]21C (stereo not given in full) | 105% | 126% | 120% | 114% | 117% | 108% | 105% | 105% | 102% | 104% | 105% | 106% | 113% | 101% | 112% | 126% | 115% | 97.3% | 93.7% | 107% | 96.8% | 108% | 98.7% | 108% | 103% | 103% | 108% | 97.5% | 96.9% | 98.9% | 105% | 90.4% | 94.9% |
| COC(=O)Nc1nc2cc(C(=O)c3ccc(F)cc3)ccc2[nH]1 | 97% | 99.2% | 101% | 99.1% | 95.2% | 92.7% | 81.8% | 47.2% | 26.6% | 74.2% | 50% | 106% | 106% | 100% | 106% | 101% | 104% | 78.2% | 42.1% | 23% | 60.6% | 40.8% | 95.5% | 94.6% | 92.9% | 96.4% | 103% | 91.1% | 82% | 49.3% | 33.9% | 73.9% | 76.7% |
| CC(=O)N[C@@H]1[C@@H](NC(N)=N)\C=C(/O[C@H]1[C@H](O)[C@H](O)CO)C(O)=O | 93.9% | 108% | 109% | 113% | 123% | 112% | 105% | 113% | 117% | 70.2% | 118% | 92.9% | 103% | 106% | 106% | 116% | 116% | 117% | 112% | 112% | 114% | 113% | 88.9% | 107% | 109% | 109% | 113% | 107% | 108% | 112% | 115% | 112% | 100% |
